Consider one substance from patent publication US20120021939A1, “METHOD FOR PROFILING DRUG COMPOUNDS USING PROTEIN KINASE INHIBITORS” (priority 2009, published 2012).

This assay concerns Renal Cell Carcinoma patients. In words: Clinical efficacy of Bevacizumab treatment by body imaging (size reduction of the tumor). It counts as in vivo, human. As for the experimental part: A study is performed to generate kinase inhibition profiles from tumor tissues derived from Renal Cell Carcinoma patients treated with the drug Bevacizumab. The tissue is derived from tumor resection performed before the Bevacizumab treatment is started. Bevacizumab is an antibody that blocks the triggering of the Vascular Endothelial Growth Factor Receptors (VEGFR), and thereby blocks the VEGFR signal transduction pathways.
The activity of the targeted VEGFR or VEGFR pathway is assessed in lysates prepared from Bevacizumab responding and non-responding patients. Clinical efficacy is determined using body imaging, thereby monitoring the size reduction of the tumor. In this assessment the lysates are profiled for activities of kinases on a peptide microarray comprising peptide substrates for protein tyrosine kinases. […] It is shown that peptides that are inhibited by these VEGFR kinase inhibitors, thus reporting VEGFR activity, are found in the microarray analyses of the Bevacizumab responding patients, and are not inhibited in the analyses of the patients not responding to Bevacizumab (Table 1). […] As these inhibition profiles are generated from tumor tissue derived from the patients before the treatment is started, these inhibition profiles are predictive for the clinical response of these patients. In patients with an active VEGFR pathway this drug is clinically active. In patients with no active VEGFR pathway no clinical effects are provided.
A study is performed to generate kinase inhibition profiles from tumor tissues derived from Renal Cell Carcinoma patients treated with the drug Bevacizumab. The tissue is derived from tumor resection performed before Bevacizumab treatment is started. Bevacizumab is an antibody that blocks the triggering of the Vascular Endothelial Growth Factor Receptors (VEGFR), and thereby it blocks the VEGFR signal transduction pathways. In patients with an active VEGFR pathway this drug is expected to be clinically active.
The activity of the alternative pathway is assessed in lysates prepared from Bevacizumab responding and non-responding patients. Clinical efficacy is determined using body imaging, thereby monitoring the size reduction of the tumor. In this assessment the lysates are profiled for activities of kinases on a peptide microarray comprising peptide substrates for protein tyrosine kinases. These kinase activity profiling tests are performed both in the presence and absence of an IGFR kinase inhibitor. […] It is shown that peptides that are inhibited by this IGFR kinase inhibitor, thus reporting IGFR activity, are found in the analyses of the Bevacizumab responding patients, and are not inhibited in the analyses of the patients not responding to Bevacizumab (Table 2). […] As these inhibition profiles are generated from tumor tissue derived from the patients before the treatment is started, these inhibition profiles are predictive for clinical response. Therefore, in patients with no active VEGFR pathway or with an alternative pathway allowing the tumor growth independent of the VEGFR signalling pathway, no clinical effect is obtained.

For the substance “Bevacizumab: antibody that blocks the triggering of the Vascular Endothelial Growth Factor Receptors (VEGFR); binds VEGF”, the Clinical response result by setting is: (Example 1, Patient 1, Renal Cell Carcinoma) “Responder”; (Example 1, Patient 2, Renal Cell Carcinoma) “Responder”; (Example 1, Patient 3, Renal Cell Carcinoma) “Non Responder”; (Example 1, Patient 4, Renal Cell Carcinoma) “Non Responder”; (Example 2, Patient 1, Renal Cell Carcinoma) “Responder”; (Example 2, Patient 2, Renal Cell Carcinoma) “Responder”. In addition, the Clinical response entry is “Non Responder” (Example 2, Patient 3, Renal Cell Carcinoma) and “Non Responder” (Example 2, Patient 4, Renal Cell Carcinoma).
